The structures appear in SMILES notation.

The values below come from patent US9359361B2, “Immune system modulators” (JANUS BIOTHERAPEUTICS, INC., priority 2011, dated 2016).

The assay addresses human TLR9 (hTLR9) (Homo sapiens (Human), UniProt Q9NR96). Put plainly: TLR9 antagonist assay in HEK-Blue-hTLR9 cells (NF-kB/AP-1 SEAP reporter). In kind it is cell-based. Particulars: hTLR9 agonist (such as ODN 2006, 1 uM), SEAP readout at 620 nm, read-out: hTLR9 antagonism IC50. The source says:
TLR9 Antagonist Assay HEK-Blue™-hTLR9 cells were obtained from InvivoGen Inc. and used to determine test compound antagonism of human TLR9 (hTLR9) driven responses. HEK-Blue™-hTLR9 cells are designed for studying the stimulation of human TLR9 by monitoring the activation of NF-kB. As described by the manufacturer, “HEK-Blue™-hTLR9 cells were obtained by co-transfection of the hTLR9 gene and an optimized secreted embryonic alkaline phosphatase (SEAP) reporter gene into HEK293 cells. The SEAP reporter gene is placed under the control of the IFN-b minimal promoter fused to five NF-kB and AP-1 binding sites. Stimulation with a TLR9 ligand activates NF-kB and AP-1 which induces the production of SEAP. Levels of SEAP can be easily determined with QUANTI-Blue™ a detection medium that turns purple/blue in the presence of alkaline phosphatase”. TLR9 Antagonism Assay […] Day 2 […] Day 3 […] Calculation of IC50 The concentration dependent inhibition of hTLR9 dependent SEAP production was expressed as the concentration of compound which produced half the maximal level of SEAP induced by the hTLR agonist alone.

human TLR9 (hTLR9), sequence (Q9NR96 26-1032): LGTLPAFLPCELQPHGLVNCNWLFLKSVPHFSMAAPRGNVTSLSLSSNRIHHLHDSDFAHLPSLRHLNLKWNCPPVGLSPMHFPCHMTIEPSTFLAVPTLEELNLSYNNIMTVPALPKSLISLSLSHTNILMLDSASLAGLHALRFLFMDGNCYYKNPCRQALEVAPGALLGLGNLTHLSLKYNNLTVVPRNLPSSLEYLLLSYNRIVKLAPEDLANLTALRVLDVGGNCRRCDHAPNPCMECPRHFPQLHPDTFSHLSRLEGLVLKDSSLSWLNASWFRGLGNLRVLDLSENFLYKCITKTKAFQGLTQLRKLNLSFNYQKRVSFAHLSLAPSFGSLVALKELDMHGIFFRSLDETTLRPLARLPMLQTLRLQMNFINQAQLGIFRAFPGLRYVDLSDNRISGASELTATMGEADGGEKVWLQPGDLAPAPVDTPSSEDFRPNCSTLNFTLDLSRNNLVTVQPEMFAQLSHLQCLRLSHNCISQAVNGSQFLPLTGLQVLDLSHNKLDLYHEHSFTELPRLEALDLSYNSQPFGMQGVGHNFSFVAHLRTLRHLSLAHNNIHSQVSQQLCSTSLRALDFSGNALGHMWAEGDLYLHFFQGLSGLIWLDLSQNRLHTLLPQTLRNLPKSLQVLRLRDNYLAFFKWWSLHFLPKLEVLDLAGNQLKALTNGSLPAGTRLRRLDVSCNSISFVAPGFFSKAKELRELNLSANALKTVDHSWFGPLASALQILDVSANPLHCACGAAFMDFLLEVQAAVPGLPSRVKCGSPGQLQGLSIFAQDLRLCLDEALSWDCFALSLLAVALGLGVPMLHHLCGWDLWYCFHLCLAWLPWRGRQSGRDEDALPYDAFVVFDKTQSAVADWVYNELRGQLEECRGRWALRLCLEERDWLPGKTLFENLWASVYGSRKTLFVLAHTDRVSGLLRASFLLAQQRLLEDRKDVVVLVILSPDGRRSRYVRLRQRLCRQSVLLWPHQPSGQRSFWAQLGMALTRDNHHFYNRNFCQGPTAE

In the case of `c1ccc(-c2nc(NCCN3CCOCC3)c3nc(NCCN4CCOCC4)c(N4CCCC4)nc3n2)cc1` [Example 66], the IC50 came out at 181 nM.
